Source: the supplement of paper PMC13380429

Tests used:
Conditions in all cases: 72 h
Calu-3 [1] = experiment: drug sensitivity score (DSS) for viability; higher = more toxic; extreme values may be limits of the assay
Vero E6 [2] = experiment: as above
Caco-2 [3] = experiment: as above
U2OS [4] = experiment: as above
Calu-3 [5] = experiment: relative viability EC50 (midpoint between 100% and the lowest measured viability); higher = less toxic
Vero E6 [6] = experiment: as above
Caco-2 [7] = experiment: as above
U2OS [8] = experiment: as above
Calu-3 [9] = experiment: cell viability relative to DMSO; higher = less toxic
Vero E6 [10] = experiment: as above
Caco-2 [11] = experiment: as above
U2OS [12] = experiment: as above
HepG2 [13] = experiment: drug sensitivity score (DSS) for viability; higher = more toxic; extreme values may be limits of the assay
HepG2 [14] = experiment: relative viability EC50 (midpoint between 100% and the lowest measured viability); higher = less toxic
HepG2 [15] = experiment: cell viability relative to DMSO; higher = less toxic

SMILES	drug sensitivity score (Calu-3 [1])	drug sensitivity score (Vero E6 [2])	drug sensitivity score (Caco-2 [3])	drug sensitivity score (U2OS [4])	relative viability EC50 (Calu-3 [5])	relative viability EC50 (Vero E6 [6])	relative viability EC50 (Caco-2 [7])	relative viability EC50 (U2OS [8])	cell viability (Calu-3 [9]; 1 nM)	cell viability (Calu-3 [9]; 10 nM)	cell viability (Calu-3 [9]; 100 nM)	cell viability (Calu-3 [9]; 1000 nM)	cell viability (Calu-3 [9]; 10000 nM)	cell viability (Vero E6 [10]; 1 nM)	cell viability (Vero E6 [10]; 10 nM)	cell viability (Vero E6 [10]; 100 nM)	cell viability (Vero E6 [10]; 1000 nM)	cell viability (Vero E6 [10]; 10000 nM)	cell viability (Caco-2 [11]; 1 nM)	cell viability (Caco-2 [11]; 10 nM)	cell viability (Caco-2 [11]; 100 nM)	cell viability (Caco-2 [11]; 1000 nM)	cell viability (Caco-2 [11]; 10000 nM)	cell viability (U2OS [12]; 1 nM)	cell viability (U2OS [12]; 10 nM)	cell viability (U2OS [12]; 100 nM)	cell viability (U2OS [12]; 1000 nM)	cell viability (U2OS [12]; 10000 nM)	drug sensitivity score (HepG2 [13])	relative viability EC50 (HepG2 [14])	cell viability (HepG2 [15]; 1 nM)	cell viability (HepG2 [15]; 10 nM)	cell viability (HepG2 [15]; 100 nM)	cell viability (HepG2 [15]; 1000 nM)	cell viability (HepG2 [15]; 10000 nM)
COc1ccc(Cc2nc(O)c3c(C)nc([C@@H](CCCc4ccccc4)[C@@H](C)O)n3n2)cc1OC [BAY-60-7550]	0	0	0	0	> 10 µM	> 10 µM	> 10 µM	> 10 µM	103%	100%	118%	96.6%	101%	103%	105%	98.5%	98.1%	95.2%	95.7%	101%	95.5%	92.4%	93.1%	101%	106%	101%	103%	94.6%	–	–	–	–	–	–	–
O=C(O)/C=C/c1ccc(-c2ccc(O)c(C34CC5CC(CC(C5)C3)C4)c2)cc1 [adarotene]	9.4	8.3	12	15.5	0.854 µM	–	0.306 µM	0.347 µM	96.9%	103%	98.4%	56.5%	24.4%	94%	104%	102%	53.4%	54.4%	87.5%	96.7%	96.8%	38%	35.3%	93.9%	98.5%	101%	14.5%	11.8%	13.7	0.285 µM	97.9%	94.6%	95.7%	29.1%	27.1%
CC(C)[C@H](CO)Nc1nc(Nc2cc(N)cc(Cl)c2)c2ncn(C(C)C)c2n1 [aminopurvalanol-a]	2.9	3.2	3.3	4.1	3.07 µM	–	3.2 µM	2.75 µM	98.4%	87.7%	101%	99.3%	47%	99.7%	102%	96.9%	95.3%	53.3%	101%	97%	98.5%	100%	38.2%	94%	99.7%	101%	96.5%	34%	3.2	3.54 µM	101%	99.3%	93.8%	105%	34.6%
O=C(N/N=C/c1ccc(O)c(O)c1)c1cc2ccccc2cc1O [dynasore]	0	0	0	0	> 10 µM	> 10 µM	> 10 µM	> 10 µM	108%	97.5%	104%	103%	97.4%	103%	98.3%	102%	103%	97.2%	98.4%	95.8%	101%	104%	92.8%	95.9%	102%	103%	106%	87.9%	–	–	–	–	–	–	–
Cc1c(OCC(F)(F)F)ccnc1C[S+]([O-])c1nc2ccccc2[nH]1 (stereo unspecified) [lansoprazole]	0	–	0	0	> 10 µM	–	> 10 µM	> 10 µM	93.1%	107%	95.1%	107%	92.3%	–	–	–	–	–	99.7%	94.3%	96.6%	97%	92.6%	94.8%	101%	93%	93.8%	93.8%	0	> 10 µM	104%	96.8%	96.1%	92.1%	96.5%
CC(C)Nc1nc2cc(Cl)c(Cl)cc2n1[C@H]1O[C@@H](CO)[C@H](O)[C@@H]1O [maribavir]	0	–	0	0	> 10 µM	–	> 10 µM	> 10 µM	96.4%	112%	106%	101%	102%	–	–	–	–	–	96.9%	98.9%	97.3%	99.5%	91%	97.7%	101%	92.1%	102%	93.7%	0	> 10 µM	106%	104%	110%	107%	97.9%
CC12CC3CC(C)(C1)CC(N)(C3)C2 [memantine]	0.1	0	0	0	> 10 µM	> 10 µM	> 10 µM	> 10 µM	101%	98.8%	98.3%	99.7%	87.1%	106%	99.1%	105%	102%	96.6%	102%	91.8%	90.3%	96.9%	96.9%	97.3%	96.4%	96.6%	99.6%	98.9%	–	–	–	–	–	–	–
CCCCCCCCCCCCCC(=O)[O-].CCCCCCCCCCCCCC(=O)[O-].N[C@@H]1CCCC[C@H]1N.[Pt+2] [miriplatin]	0.1	–	0	0	> 10 µM	–	> 10 µM	> 10 µM	90.9%	101%	104%	99.2%	87.4%	–	–	–	–	–	102%	93.5%	98.1%	91.2%	104%	100%	97.7%	99.2%	95.4%	99.3%	0	> 10 µM	105%	101%	106%	97.1%	92.1%
O=C(O)/C=C/c1ccc(O)cc1 [naringeninic-acid]	0	–	0.1	0	> 10 µM	–	> 10 µM	> 10 µM	93.2%	109%	100%	109%	108%	–	–	–	–	–	88%	91.5%	86.1%	104%	85.4%	102%	103%	98.9%	106%	101%	0	> 10 µM	92%	108%	97.5%	96.8%	94%
COCCOC(=O)C1=C(C)NC(C)=C(C(=O)OC(C)C)C1c1cccc([N+](=O)[O-])c1 (stereo unspecified) [nimodipine]	0	0	0	0	> 10 µM	> 10 µM	> 10 µM	> 10 µM	101%	98.2%	104%	96.7%	97.8%	98.6%	100%	103%	102%	88.1%	98.4%	93.4%	87.8%	98.1%	91.5%	97.2%	97.8%	104%	97.8%	95.9%	–	–	–	–	–	–	–
O=C(O)c1cc(/N=N/c2ccc(S(=O)(=O)Nc3ccccn3)cc2)ccc1O [sulfasalazine]	0	0	0	0	> 10 µM	> 10 µM	> 10 µM	> 10 µM	101%	102%	102%	104%	91.5%	104%	103%	107%	98.7%	97.6%	108%	99.5%	89.9%	96.6%	112%	98.6%	99.1%	97.4%	102%	98.1%	–	–	–	–	–	–	–
CCOC(=O)N1CSC[C@H]1C(=O)O [telmesteine]	0	–	0	0	> 10 µM	–	> 10 µM	> 10 µM	97.9%	91%	94.8%	107%	102%	–	–	–	–	–	109%	93.6%	100%	90.2%	95.5%	97.1%	100%	99.2%	96.4%	99%	0.2	> 10 µM	101%	109%	105%	90.1%	88.9%
C=C(NC(=O)C(=C)NC(=O)c1csc(C2=N[C@@H]3c4csc(n4)[C@H]4NC(=O)c5csc(n5)[C@H]([C@](C)(O)[C@@H](C)O)NC(=O)[C@H]5CSC(=N5)/C(=C/C)NC(=O)[C@H]([C@@H](C)O)NC(=O)c5csc(n5)[C@]3(CC2)NC(=O)[C@H](C)NC(=O)C(=C)NC(=O)[C@H](C)NC(=O)[C@H]([C@@H](C)CC)N[C@@H]2C=Cc3c([C@H](C)O)cc(nc3[C@H]2O)C(=O)O[C@@H]4C)n1)C(N)=O [thiostrepton]	0	–	0.2	0.7	> 10 µM	–	> 10 µM	> 10 µM	101%	95%	97.8%	99.1%	110%	–	–	–	–	–	102%	89.3%	89.5%	82.9%	96.9%	100%	94%	95.8%	75.3%	93.6%	4.3	> 10 µM	111%	102%	81%	87.6%	84.5%
